How the values were obtained:
[1] = tested on: Papillomaviruses; conditions: cited from earlier work
[2] = tested on: Zinc-fingers in which the Zinc is tetrahedrally coordinated to cysteines and histidines; conditions: cysteine/histidine-coordinated Zinc; cited from earlier work
[3] = tested on: type II collagen-induced arthritis; conditions: mice; cited from earlier work
[4] = in vivo
Text: • 1. It was recently discovered that the transcription factor Zinc-finger protein Gli-similar (Glisl) is found only in psoriatic and not in the epidermis of healthy skin^2. The expression of this protein is restricted to the suprabasal level of the psoriatic epidermis. […] The mode of action of the drug involves displacement Zinc from the protein by the axial ligation of the drug's cobalt (III) complex to the nitrogen of the imidazole ring of the histidine residues. The zinc-finger bearing protein is thus inactivated^4. • We have discovered that Doxovir (CTC-96) will inactivate Glis1 in Psoriatic epidermis and as a result may selectively retard the abnormal proliferation and differentiation of psoriatic keratinocytes. • 2. There have been several reports of the possibility that Human Papilloma Viruses (HPVs) are associated with at least certain manifestations of psoriasis (e.g. ^5,6,7,8). Papillomaviruses proliferate and affect the differentiation and proliferation of keratinocytes. The possible role of the virus (particularly HPV type 5) in the etiology or the maintenance of the abnormal differentiation of psoriatic human skin keratinocytes has thus been postulated. • JunB protein, a component of the ubiquitous transcription factor AP-1, regulates cell proliferation, differentiation, stress responses and cytokine expression in various tissues. […]

SMILES: CC(/C=C(/C)[O-])=NCCN=C(C)/C=C(/C)[O-].Cc1ncc[nH]1.Cc1ncc[nH]1.[Br-].[Co+3] [Doxovir]
- anti-papillomavirus activity [1]: distinct anti-papillomavirus activity
- disruption of structure and function of Zinc-fingers [2]: selectively disrupts the structure and function of Zinc-fingers
- therapeutic activity for type II collagen-induced arthritis [3]: proven to have therapeutic activity
- adverse effects on intact skin [4]: no adverse effects on intact skin
